How the values were obtained:
PC3M cells [1] = experiment: PC3M cell invasion across Matrigel-coated Transwell filters; assay type: cell-based, human; conditions: increasing concentrations, with or without HGF 40 ng/ml, 30 h
Procedure: After serum deprivation and pre-treatment for 16 hrs, PC3M cells were assayed in cell culture inserts (BD Biosciences), 8 micron-pore-size polyethylene terephthalate membrane with Falcon cell culture inserts (Becton Dickinson). Pre-treated cells were trypsinized and counted; a total of 1×10^5 cells in serum free medium (500 microliters) were added to the upper chamber, and 500 microliters of serum free media with the relative concentration of C90 and HGF were added to the lower chamber. […] Then the cells in the inside of the upper chamber were removed with a cotton swab and cell on the other side of the membrane were fixed and stained using Diff-Quick (Dade Diagnostics, Deerfield, Ill.). Photographs of […] random fields were taken and cells were counted by bright field microscopy using a 10× objective. Mean values from four randomly selected fields (1×1.4 mm) were calculated for each of triplicate wells per experimental condition.
FIG. 13B depicts bar graphs of PC3M cell invasion across Matrigel-coated Transwell filters in the presence (filled bars) or absence (unfilled bars) of HGF (40 ng/ml, 30 h).

HMVE cells [2] = experiment: HMVE cell proliferation; assay type: cell-based, human
Procedure: HUVE or HMVE cells were seeded per triplicate in type I collagen-coated 48-well plates (Biocoat) (3000 cells/well) in […] of complete EGM-Bullet Kit medium (BioWhittaker, Walkersville, Md.), allowed to attach for 4 hr and incubated overnight with or without the indicated concentrations of peptide 2. The cultures were rinsed twice in serum-free medium and incubated with EBM medium (BioWhittaker) supplemented with 50 μg/ml heparin, 50 μg/ml ascorbic acid and 10% FCS. After either 4 days (HUVE) or 5 days (HMVE), cells were harvested with trypsin/EDTA and counted with an hemocytometer. The mean number of cells per ml was calculated from 3 independent measures for each of triplicate wells per experimental condition and compared to controls using the Student's unpaired t-test. Results set forth in FIG. 12 are described as the ratio of growth factor-treated to control proliferating cells designated on the y-axis as “Proliferation (Fold Increase)”.

B16 mouse melanoma cells = experiment: Growth rate and viability in culture of C-90 treated B16 cells; assay type: cell-based; conditions: same study period
HMEC-1 cells = experiment: HMEC-1 cell migration, modified Boyden chamber; assay type: cell-based, human; conditions: VEGF
Procedure: (§1) The migration assay of HUVE and HMEC-1 cells in modified Boyden chambers was adapted from previously described procedures (Murohara et al., Thromb. Vasc. Biol., 19: 1156-61 (1999), Malinda et al., FASEB J., 13: 53-62 (1999)). In brief, Biocoat Cell Environment control inserts (8 micron pore size; Becton Dickinson) were coated with 0.1% gelatin (Sigma) for at least 1 hour at 37° C. and air dried. Lower chambers contained 0.7 ml RPMI+0.1% BSA, to which 20 ng/ml HGF and/or 300 nM Grb2 inhibitors were added. Cells were pre-treated with the indicated concentrations of Grb2 inhibitors for 18-24 hours, trypsinized, washed twice in RPMI+0.1% BSA, added to upper chambers (5×10^4 cells/well) with or without inhibitors in a final volume of 0.5 ml, and incubated for 4 h at 37° C. Cells on the upper surface of each filter were removed with a cotton swab, while cells that had traversed to the bottom surface of the filter were fixed and stained using Diff-Quik (Dade Diagnostics) and counted using a 10× objective. Mean values from 4 randomly selected fields (1×1.4 mm) were calculated for each of triplicate wells per experimental condition. Shown in FIG. 6 is the ratio of growth factor-treated to control migrating cells designated on the y-axis as “Migration (Fold Increase)” or as the mean number of cells per optical field in FIGS. 8-11.

PC3M cells [3] = experiment: Growth rate and viability in culture of C-90 treated PC3M cells; assay type: cell-based, human; conditions: treated 24 h, three week study period
B16-luc cells = experiment: Tail vein model (induced metastasis), B16-luc, bioluminescence imaging; assay type: in vivo, SCID/beige mice; conditions: single 24 h pre-treatment, three week period
Procedure: B16-luc cells were pre-treated for 24 hrs with 1 micromolar C90, then trypsinized, washed in PBS and spun down at 650 rpm to be resuspended in HBSS at the appropriate cell density for injection (1×10^6 cells). Injection was boosted with 10 micromolar C90. Cell where then injected in the dorsal tail vein of severe combined immunodeficient (SCID)/beige mice (Taconic Inc., Germantown, N.Y.).
(§2) Cells prepared for xenograft injections were pretreated with C-90 for 24 h. Cells were injected in to mice (5 per group) by either tail vein (B16-luc, induced metastasis model) or subcutaneously (PC3M-luc, spontaneous metastasis model). Imaging of the PC3M cell metastases in lungs ex vivo (FIG. 14A)) correlated with earlier scans of intact animals (data not shown). Units are proportional to photons emitted within a defined time interval (total flux).

HMVE cells [4] = experiment: HMVE cell migration, modified Boyden chamber; assay type: cell-based, human
Procedure: as §1

PC3M-luc cells = experiment: Subcutaneous tumor model (spontaneous metastasis), PC3M-luc xenograft, bioluminescence imaging; assay type: in vivo, SCID/beige mice; conditions: cells pre-treated 24 h with 1 micromolar
Procedure: PC3M-luc cells were pre-treated for 24 hrs with 1 micromolar C90, then trypsinized, washed in PBS and spun down at 650 rpm to be resuspended in HBSS at the appropriate cell density for injection (1×10^6 cells). Injection was boosted with 10 micromolar C-90. Cell where then injected in the right flank SCID/beige mice (Taconic Inc., Germantown, N.Y.). On indicated days, mice were injected with 150 mg/kg of D-luciferin (potassium salt, Xenogen Corp., Alameda, Calif.) and placed for imaging in the In vivo Imaging System (Xenogen) with total imaging time of 1 or 5 minutes. Total body bioluminescence was quantified by integrating the photonic flux (photons per second) through a region of interest drawn around each mouse.
as §2

Compound: NC(=O)C[C@H](NC(=O)C1(NC(=O)[C@H](Cc2ccc(C(C(=O)O)C(=O)O)cc2)NC(=O)C(=O)O)CCCCC1)C(=O)NCCCc1cccc2ccccc12 [peptide 2, (N-oxalyl-4-malonyl)-Phe-Ac6c-Asn-NH-(3-naphthalen-1-yl-propyl)]
- PC3M cell invasiveness in vitro (PC3M cells [1]): dose-dependent inhibition
- HMVE cell growth (HMVE cells [2]; peptide 30 nM, presence and absence of growth factors): basically resistant
- HMVE cell growth (HMVE cells [2]; peptide 300 nM): highly significant (p<0.001) inhibition of cell growth
- cell viability or growth rate in culture (B16 mouse melanoma cells): no differences in cell viability or growth rate
- VEGF-induced cell migration (HMEC-1 cells): significantly (p<0.001) reverted
- growth rate and viability in culture (PC3M cells [3]): identical growth rate and viability as untreated cells
- ability to form lung metastases relative to untreated control cells (B16-luc cells): significantly reduced ability to form lung metastases
- VEGF-induced cell migration (HMVE cells [4]; VEGF): significantly (p<0.001) reverted
- cell migration induced by HGF (HMVE cells [4]; peptide 300 nM, HGF 0-50 ng/ml): abolished
- abolition of the effect of the optimal concentration of bFGF (HMVE cells [4]; peptide 300 nM, bFGF 5 ng/ml): 72%
- biphasic stimulatory activity of bFGF on migration (HMVE cells [4]; peptide 300 nM, bFGF 0.2-50 ng/ml): significantly (p<0.001) inhibited
- primary tumor growth (mass, volume ex vivo) (PC3M-luc cells): did not affect primary tumor growth
- metastatic rate (lung metastases ex vivo, total flux) relative to untreated control cells (PC3M-luc cells; injection boosted with 10 micromolar): significantly reduced the metastatic rate
